Broadly, the IC50 is the concentration needed to halve the response being measured.

Molecules are shown by their SMILES.

This assay deals with IL-1β production in PMA-differentiated THP-1 cells. Kind of assay: IL-1β production in PMA-differentiated THP-1 cells stimulated with gramicidin (hTHP-1 assay, 2% fetal bovine serum; Procedures 1-3). It counts as cell-based, human. To be noted: hTHP-1 assay containing 2% fetal bovine serum; class symbols; read-out: hTHP-1 IC50 (Average IC50 of compounds in hTHP-1 assay). As to the method:
The following protocol is suitable for testing the activity of the compounds disclosed herein.
Procedure 1: IL-1β Production in PMA-Differentiated THP-1 Cells Stimulated with Gramicidin
THP-1 cells were purchased from the American Type Culture Collection and sub-cultured according to instructions from the supplier. Cells were cultured in complete RPMI 1640 (containing 10% heat inactivated FBS, penicillin (100 units/ml) and streptomycin (100 μg/ml)), and maintained in log phase prior to experimental setup. Prior to the experiment, compounds were dissolved in dimethyl sulfoxide (DMSO) to generate a 30 mM stock. The compound stock was first pre-diluted in DMSO to 3, 0.34, 0.042 and 0.0083 mM intermediate concentrations and subsequently spotted using Echo550 liquid handler into an empty 384-well assay plate to achieve desired final concentration (e.g. 100, 33, 11, 3.7, 1.2, 0.41, 0.14, 0.046, 0.015, 0.0051, 0.0017 μM). DMSO was backfilled in the plate to achieve a final DMSO assay concentration of 0.37%. The plate was then sealed and stored at room temperature until required.
THP-1 cells were treated with PMA (Phorbol 12-myristate 13-acetate) (20 ng/ml) for 16-18 hours. On the day of the experiment the media was removed and adherent cells were detached with trypsin for 5 minutes. Cells were then harvested, washed with complete RPMI 1640, spun down, and resuspended in RPMI 1640 (containing 2% heat inactivated FBS, penicillin (100 units/ml) and streptomycin (100 μg/ml). The cells were plated in the 384-well assay plate containing the spotted compounds at a density of 50,000 cells/well (final assay volume 50 μl). Cells were incubated with compounds for 1 hour and then stimulated with gramicidin (5 μM) (Enzo) for 2 hours. Plates were then centrifuged at 340 g for 5 min. Cell free supernatant (40 μL) was collected using a 96-channel PlateMaster (Gilson) and the production of IL-1β was evaluated by HTRF (cisbio). The plates were incubated for 18 h at 4° C. and read using the preset HTRF program (donor emission at 620 nm, acceptor emission at 668 nm) of the SpectraMax i3x spectrophotometer (Molecular Devices, software SoftMax 6). A vehicle only control and a dose titration of CRID3 (100-0.0017 μM) were run concurrently with each experiment.
Procedure 2: IL-1β Production in PMA-Differentiated THP-1 Cells Stimulated with Gramicidin
THP-1 cells were purchased from the American Type Culture Collection and sub-cultured according to instructions from the supplier. Prior to experiments, cells were cultured in complete RPMI 1640 (containing 10% heat inactivated FBS, penicillin (100 units/ml) and streptomycin (100 μg/ml)), and maintained in log phase prior to experimental setup. Prior to the experiment THP-1 were treated with PMA (Phorbol 12-myristate 13-acetate) (20 ng/ml) for 16-18 hours. Compounds were dissolved in dimethyl sulfoxide (DMSO) to generate a 30 mM stock. On the day of the experiment the media was removed and adherent cells were detached with trypsin for 5 minutes. Cells were then harvested, washed with complete RPMI 1640, spun down, resuspended in RPMI 1640 (containing 2% heat inactivated FBS, penicillin (100 units/ml) and streptomycin (100 μg/ml). The cells were plated in a 384-well plate at a density of 50,000 cells/well (final assay volume 50 μl). Compounds were first dissolved in assay medium to obtain a 5× top concentration of 500 μM. 10 step dilutions (1:3) were then undertaken in assay medium containing 1.67% DMSO. 5× compound solutions were added to the culture medium to achieve desired final concentration (e.g. 100, 33, 11, 3.7, 1.2, 0.41, 0.14, 0.046, 0.015, 0.0051, […]). Final DMSO concentration was at 0.37%. Cells were incubated with compounds for 1 hour and then stimulated with gramicidin (5 μM) (Enzo) for 2 hours. Plates were then centrifuged at 340 g for 5 min. Cell free supernatant (40 μL) was collected using a 96-channel PlateMaster (Gilson) and the production of IL-1β was evaluated by HTRF (cisbio). […]
On to `Cc1oc(S(N)(=O)=NC(=O)Nc2c3c(cc4c2CCC4C)CCC3)cc1C(C)(C)O` (single isomer, unassigned) [Example 125], for which the half-inhibitory concentration (IC50) was 0.04 to 0.2 µM. The value for `Cc1oc(S(N)(=O)=NC(=O)Nc2c3c(cc4c2C(C)CC4)CCC3)cc1C(C)(C)O` (single isomer, unassigned) [Example 126] was 1 to 5 µM; that for `CC(C)(O)c1cccc(S(N)(=O)=NC(=O)Nc2c3c(c(F)c4c2CCC4)CCC3)c1` (single isomer, unassigned) [Example 128] was 0.2 to 1 µM; that for `CC(C)(O)c1cccc(S(N)(=O)=NC(=O)Nc2c3c(c(F)c4c2CCC4)CCC3)c1` (single isomer, unassigned) [Example 129] was 5 to 30 µM.

Turning to `CC(C)c1cc(C#N)cc(C(C)C)c1NC(=O)N=S(N)(=O)c1ncc(C(C)(C)O)s1` (single isomer, unassigned) [Example 130], the half-maximal inhibitory concentration (IC50) was 0.04 to 0.2 µM. Turning to `CC(C)c1cc(C#N)cc(C(C)C)c1NC(=O)N=S(N)(=O)c1ncc(C(C)(C)O)s1` (single isomer, unassigned) [Example 131], the concentration for half-maximal inhibition (IC50) was in the range of 1 to 5 µM.

On to `CC(C)c1cc(OC(F)F)cc(C(C)C)c1NC(=O)N=S(N)(=O)c1ncc(C(C)(C)O)s1` (single isomer, unassigned) [Example 136], for which the IC50 was in the range of 1 to 5 µM.

On to `CC(C)c1cc(OC(F)F)cc(C(C)C)c1NC(=O)N=S(N)(=O)c1ncc(C(C)(C)O)s1` (single isomer, unassigned) [Example 137], for which the IC50 lay within 0.04 to 0.2 µM. The figure for `CC(C)c1cc(F)cc(C(C)C)c1NC(=O)N=S(N)(=O)c1ncc(C(C)(C)O)s1` (single isomer, unassigned) [Example 138] is 1 to 5 µM. The value for `CC(C)c1cc(F)cc(C(C)C)c1NC(=O)N=S(N)(=O)c1ncc(C(C)(C)O)s1` (single isomer, unassigned) [Example 139] was 0.04 to 0.2 µM; that for `CC(C)c1cc(F)cc(C(C)C)c1NC(=O)N=S(N)(=O)c1cc(C(C)(C)O)cs1` (single isomer, unassigned) [Example 140] was 0.008 to 0.04 µM. The figure for `CC(C)c1cc(F)cc(C(C)C)c1NC(=O)N=S(N)(=O)c1cc(C(C)(C)O)cs1` (single isomer, unassigned) [Example 141] is 1 to 5 µM; for `CC(C)(O)c1ccc(S(N)(=O)=NC(=O)Nc2c3c(c(Cl)c4c2CCC4)CCC3)c(F)c1` (single isomer, unassigned) [Example 142] it is 0.04 to 0.2 µM. For `CC(C)(O)c1ccc(S(N)(=O)=NC(=O)Nc2c3c(c(Cl)c4c2CCC4)CCC3)c(F)c1` (single isomer, unassigned) [Example 143], the half-maximal inhibitory concentration (IC50) is 5 to 30 µM.

As to `CC(C)(O)c1ncc(S(N)(=O)=NC(=O)Nc2c3c(c(C#N)c4c2CCC4)CCC3)s1` (single isomer, unassigned) [Example 146], the half-maximal inhibitory concentration (IC50) lay within 1 to 5 µM. The value for `CC(C)(O)c1ncc(S(N)(=O)=NC(=O)Nc2c3c(c(C#N)c4c2CCC4)CCC3)s1` (single isomer, unassigned) [Example 147] was 0.2 to 1 µM. The figure for `Cc1oc(S(N)(=O)=NC(=O)Nc2c3c(c(F)c4c2CCC4)CCC3)cc1C(C)(C)O` (single isomer, unassigned) [Example 148] is less than 0.008 µM; for `Cc1oc(S(N)(=O)=NC(=O)Nc2c3c(c(F)c4c2CCC4)CCC3)cc1C(C)(C)O` (single isomer, unassigned) [Example 149] it is 0.2 to 1 µM. The value for `CC(C)(O)c1cccc(S(N)(=O)=NC(=O)Nc2c3c(cc4c2CCC4)CCC3)c1` (single isomer, unassigned) [Example 150] was 5 to 30 µM. On to `CC(C)(O)c1cccc(S(N)(=O)=NC(=O)Nc2c3c(cc4c2CCC4)CCC3)c1` (single isomer, unassigned) [Example 151], for which the IC50 lay within 0.2 to 1 µM. For `CC(C)(O)c1ccc(S(N)(=O)=NC(=O)Nc2c3c(c(F)c4c2CCC4)CCC3)c(F)c1` (single isomer, unassigned) [Example 152], the half-maximal inhibitory concentration (IC50) fell in the range of 0.04 to 0.2 µM. The figure for `CC(C)(O)c1ccc(S(N)(=O)=NC(=O)Nc2c3c(c(F)c4c2CCC4)CCC3)c(F)c1` (single isomer, unassigned) [Example 153] is 1 to 5 µM. The figure for `CN(C)Cc1ccc(S(N)(=O)=NC(=O)Nc2c3c(cc4c2CCC4)CCC3)c(F)c1` (single isomer, unassigned) [Example 154] is 0.04 to 0.2 µM; for `CN(C)Cc1ccc(S(N)(=O)=NC(=O)Nc2c3c(cc4c2CCC4)CCC3)c(F)c1` (single isomer, unassigned) [Example 155] it is 1 to 5 µM; for `CC(C)c1cc(F)cc(C(C)C)c1NC(=O)N=S(N)(=O)c1ccc(C(C)(C)O)s1` (single isomer, unassigned) [Example 156] it is 0.2 to 1 µM. The figure for `CC(C)c1cc(F)cc(C(C)C)c1NC(=O)N=S(N)(=O)c1ccc(C(C)(C)O)s1` (single isomer, unassigned) [Example 157] is 5 to 30 µM. Consider `CC(C)(O)c1ccc(S(N)(=O)=NC(=O)Nc2c3c(c(F)c4c2CCC4)CCC3)c(Cl)c1` (single isomer, unassigned) [Example 158], for which the half-maximal inhibitory concentration (IC50) is 1 to 5 µM. The figure for `CC(C)(O)c1ccc(S(N)(=O)=NC(=O)Nc2c3c(c(F)c4c2CCC4)CCC3)c(Cl)c1` (single isomer, unassigned) [Example 159] is 5 to 30 µM; for `CN(C)Cc1cccc(S(N)(=O)=NC(=O)Nc2c3c(cc4c2CCC4)CCC3)c1` (single isomer, unassigned) [Example 160] it is 0.2 to 1 µM; for `CN(C)Cc1cccc(S(N)(=O)=NC(=O)Nc2c3c(cc4c2CCC4)CCC3)c1` (single isomer, unassigned) [Example 161] it is 5 to 30 µM. Consider `Cc1cc(S(N)(=O)=NC(=O)Nc2c3c(cc4c2CCC4)CCC3)ccc1C(C)(C)O` (single isomer, unassigned) [Example 162], for which the IC50 was in the range of 0.2 to 1 µM.

As to `Cc1cc(S(N)(=O)=NC(=O)Nc2c3c(cc4c2CCC4)CCC3)ccc1C(C)(C)O` (single isomer, unassigned) [Example 163], the IC50 was in the range of 5 to 30 µM. The value for `Cc1nc(C(C)(C)O)sc1S(N)(=O)=NC(=O)Nc1c2c(cc3c1CCC3)CCC2` (single isomer, unassigned) [Example 164] was 0.008 to 0.04 µM.

Turning to `Cc1nc(C(C)(C)O)sc1S(N)(=O)=NC(=O)Nc1c2c(cc3c1CCC3)CCC2` (single isomer, unassigned) [Example 165], the IC50 lay within 1 to 5 µM.

Regarding `CC(C)(O)c1cc(F)cc(S(N)(=O)=NC(=O)Nc2c3c(c(F)c4c2CCC4)CCC3)c1` (single isomer, unassigned) [Example 170], the IC50 was in the range of 1 to 5 µM. The figure for `CC(C)(O)c1cc(F)cc(S(N)(=O)=NC(=O)Nc2c3c(c(F)c4c2CCC4)CCC3)c1` (single isomer, unassigned) [Example 171] is 0.2 to 1 µM; for `Cc1cc(S(N)(=O)=NC(=O)Nc2c(C(C)C)cc(OC(F)F)cc2C(C)C)sc1C(C)(C)O` (single isomer, unassigned) [Example 172] it is 0.2 to 1 µM; for `Cc1cc(S(N)(=O)=NC(=O)Nc2c(C(C)C)cc(OC(F)F)cc2C(C)C)sc1C(C)(C)O` (single isomer, unassigned) [Example 173] it is 1 to 5 µM.

Turning to `CC(C)(O)c1cc(S(N)(=O)=NC(=O)Nc2c3c(c(F)c4c2CCC4)CCC3)ccc1F` (single isomer, unassigned) [Example 174], the half-maximal inhibitory concentration (IC50) was in the range of 0.2 to 1 µM.

For the origin of these results see US11724992B2 (Novartis AG, priority 2017, dated 2023).
